# Laboratory results reported in patent US10183015B2, “Heterocyclic compounds and methods of use” (Medivation Technologies LLC, priority 2015, dated 2019).
# Where “and” joins values, the source holds several entries; their conditions need not be identical. Identical values can stand only once.
# Legend:
# [1] = system: diet-induced NASH obese insulin resistant mice; experiment: DIN mouse model: liver weight and liver lipid levels; assay type: in vivo; design: liver weight: unit not given here; conditions: 20 mg/kg
# Description: (§1) Male C57Bl/6J mice (8 weeks old) were housed in enriched ventilated cages (31×12.5×12.7 cm) throughout the experimental phase. Animals' cages litters were changed at least once a week. Animal were housed 5 per cage on inverted 12-hour light cycle (at 09:00 am lights off), 22±2° C. and 55±10% relative humidity. The acclimation period was 20 days. During the acclimation period, all mice were fed a standard diet (RM1 (E) 801492, SDS) and tap water ad libitum. After the acclimation period, mice were fed with the DIN diet (60% fat, cholesterol enriched) and fructose-enriched tap water ad libitum until the end of the experiment.
# (§2) At 6 weeks of diet, mice were 4-hour fasted (09:00 am to 1:00 pm) and blood (150 μl/EDTA) was collected at 01:00 pm by retro-orbital bleeding under isoflurane anesthesia. Mice were then allocated in 2 homogenous groups (n=12/group) according to their plasma levels of ALT (average levels: 685U/L), AST (average levels: 627U/L) and HOMA-IR index (average value: 4.7), into 2 homogenous groups (see values at day 0 in Tables 15A and 15B ALT/AST and Tables 16A and 16B for HOMA-IR). Mice were then treated once daily by oral gavage with vehicle (Group 1) or Compound #37 at 20 mg/kg (Group 2) for 70 days.
# To investigate whether Compound #37 improves pre-existing steatosis/NASH pathology, a study was conducted using a 16-week diet-induced NASH mouse model. In this model, mice develop steatosis that progresses with inflammation and fibrosis that mimic many of the observed pathologies in human nonalcoholic fatty liver disease (NAFLD) and NASH (Hebbard & George, 2010). For 6 weeks, mice were fed a high-fat, high-cholesterol diet and provided drinking water containing fructose to induce liver pathology (Charlton et al, 2011). After 6 weeks, the mice were divided into 2 groups with similar mean aspartate aminotransferase (AST) and alanine aminotransferase (ALT) values (n=12 mice), although it should be noted that AST and ALT concentrations within both groups were higher and with greater variability than anticipated (e.g., mean ALT 677 U/L [SD, 401 U/L] in the vehicle control group and 693 U/L [SD, 365 U/L] in the Compound #37 group). After the animals were divided into 2 groups, the diet was continued for 10 additional weeks during which time 1 group received vehicle and the other was treated with 20 mg/kg/day Compound #37.
# [2] = system: diet-induced NASH obese insulin resistant mice; experiment: DIN mouse model: NAS scores; assay type: in vivo; design: total / steatosis / inflammation / fibrosis / hepatocyte ballooning: scale not given here
# Description: NAFLD score analysis. A 0.5 cm^3 piece of liver was fixed in 10% formalin for 48-72h, stored in ethanol 70° at 4° C., and processed for eosin/hematoxylin staining and NAFLD score analysis. One section (thickness 3-5 μm) per block was deposited on Superfrost+slides for hematoxylin-eosin staining. Individual slides having a single hepatic lobe section stained with H&E were digitized using a Nanozoomer from Hamamatsu. Sections were evaluated with knowledge of groups. Each section was evaluated and individually scored. A NAFLD scoring system (NAS) adapted from Kleiner et al. (Hepatology 41, 1313-21, 2005), Wu et al. (BMC Vet. Res. 10, 162, 2014), and Lee et al. (J. Lipid Res. 48, 1885-96, 2007). A total of four variables were qualitatively assessed and ranked with a score: (1) hepatocellular steatosis, (2) liver inflammation, (3) lobular fibrosis, and (4) hepatocyte ballooning.
# as §1, §2
# Each section was evaluated and individually scored using the modified NAFLD scoring system described above.
# ob/ob mice = experiment: ob/ob mice: liver Oil Red O staining; assay type: in vivo, mouse; conditions: 8 weeks
# Description: Groups of mice were either untreated (group 1) or treated for 8 weeks with vehicle (group 2), or with Compound #37 at 5 mg/kg (group 3), 10 mg/kg (group 4), or 20 mg/kg (group 5). Treatment was daily by oral gavage in vehicle (20% HPβCD). Values are presented as mean±standard error of the mean (sem). A t test was performed to compare the untreated group and the vehicle group. Then Compound #37-treated groups were compared to the vehicle-treated group with a 1-way ANOVA+Dunnett's post-test. […] For each test, a p<0.05 was considered significant. Of note, animal #39, group 1 was excluded from the statistical analysis, due to low values for all parameters measured. Some other values were considered as out-liners and excluded from the statistical analysis when the value was far below the mean minus 2 SD. Excluded values are marked with an asterisk in Tables 21-23.
# [3] = NAS score, 20 mg/kg group, mean, n 11
smiles,measurement,setting,value
"CC(C)Cc1cc(-c2nc(-c3ccc(NS(=O)(=O)C(F)(F)F)cc3Cl)cs2)ccn1 [Compound 37, N-(3-chloro-4-(2-(2-isobutylpyridin-4-yl)thiazol-4-yl)phenyl)-1,1,1-trifluoromethanesulfonamide]",Liver weight increase,[1]; 70 days,21%
same,Hepatic total cholesterol levels increase,"[1]; 70 days, p<0.05 vs. vehicle",17%
same,liver cholesterol,"[1]; group mean, n 11",28.2 µg/mg
same,liver fatty acids,"[1]; group mean, n 11",63.2 nmol/mg
same,liver triglycerides,"[1]; group mean, n 11",133.8 µg/mg
same,liver weight,"[1]; group mean, n 11",2.56
same,liver cholesterol,[1]; individual animals,27.4 µg/mg and 32.2 µg/mg and 25.8 µg/mg and 28.4 µg/mg and 28.3 µg/mg and 27.1 µg/mg and 29.9 µg/mg and 20.7 µg/mg and 31.3 µg/mg and 34.0 µg/mg and 25.3 µg/mg
same,liver fatty acids,[1]; individual animals,72.2 nmol/mg and 67.2 nmol/mg and 56.2 nmol/mg and 82.8 nmol/mg and 56.8 nmol/mg and 47.8 nmol/mg and 68.4 nmol/mg and 43.9 nmol/mg and 70.0 nmol/mg and 76.7 nmol/mg and 53.2 nmol/mg
same,liver triglycerides,[1]; individual animals,262.5 µg/mg and 203.3 µg/mg and 72.2 µg/mg and 162.3 µg/mg and 101.9 µg/mg and 53.6 µg/mg and 178.1 µg/mg and 48.9 µg/mg and 91.5 µg/mg and 195 µg/mg and 102.6 µg/mg
same,liver weight,[1]; individual animals,3.24 and 2.72 and 1.97 (2×) and 2.74 and 2.39 and 2.54 and 2.44 and 2.67 and 3.05 and 2.40
same,inflammation score increase,"[2]; 20 mg/kg, 70 days, p<0.05 vs. vehicle",81%
same,fibrosis score reduction,"[2]; 20 mg/kg, 70 days, p=0.055 vs. vehicle",45%
same,total,"[2]; NAS score, 20 mg/kg group, individual animal, 20 mg/kg",7 and 8 and 3 (2×) and 5 (2×) and 6 (4×) and 4
same,fibrosis,[2]; [3],0.64
same,hepatocyte ballooning,[2]; [3],1.91
same,inflammation,[2]; [3],0.91
same,steatosis,[2]; [3],1.91
same,total,[2]; [3],5.36
same,liver oil-red-O quantification,"ob/ob mice; 5 mg/kg daily oral gavage, group mean",6.7%
same,liver oil-red-O quantification,"ob/ob mice; 5 mg/kg daily oral gavage, individual animal values, 5 mg/kg",0.67% and 2.91% and 8.82% and 9.22% and 4.41% and 6.15% and 8.06% and 8.93% and 8.85% and 9.33%
same,liver oil-red-O quantification,"ob/ob mice; 10 mg/kg daily oral gavage, group mean",13.23%
same,liver oil-red-O quantification,"ob/ob mice; 10 mg/kg daily oral gavage, individual animal values, 10 mg/kg",19.18% and 18.46% and 13.25% and 3.65% and 8.46% and 8.67% and 16.07% and 17.12% and 16.00% and 11.43%
same,liver oil-red-O quantification,"ob/ob mice; 20 mg/kg daily oral gavage, group mean",8.5%
same,liver oil-red-O quantification,"ob/ob mice; 20 mg/kg daily oral gavage, individual animal values, 20 mg/kg",13.45% and 0.42% and 15.53% and 9.89% and 4.95% and 8.17% and 4.74% and 7.06% and 15.71% and 5.38%
